From ChEMBL document CHEMBL3758143, “5-Iodo-2-arylalkylthio-6-aryl pyrimidin-4(3H)-ones as non-nucleoside anti-HBV agents” (Medchemcomm, 2015)
Active and inactive are the calls of the source. The calls are words filed in the database; no cut-off is given here.

Key:
[1] = tested on: Hepatitis B virus; experiment: Antiviral activity against Hepatitis B virus in human HepAD38 cells assessed as inhibition of extracellular viral replication at 10 uM incubated for 2 days followed by 3 day incubation with fresh medium containing compound for 72 hrs by qRT-PCR analysis; assay type: functional
[2] = tested on: Hepatitis B virus; experiment: Antiviral activity against Hepatitis B virus in human HuH7 cells assessed as reduction in HBeAg secretion incubated for 2 days followed by 3 day incubation with fresh medium containing compound for 7 days by time-resolved fluoro-immunoassay; assay type: functional, organism-based; details: Huh-7
[3] = tested on: Hepatitis B virus; experiment: Antiviral activity against Hepatitis B virus in human HuH7 cells assessed as reduction in HBsAg secretion at 25 uM incubated for 2 days followed by 3 day incubation with fresh medium containing compound for 7 days by time-resolved fluoro-immunoassay; assay type: functional, organism-based; details: Huh-7
[4] = tested on: Hepatitis B virus; experiment: Effect on transcription level in Hepatitis B virus assessed as pgRNA level in human HuH7 cells after 48 hrs by qRT-PCR analysis; assay type: functional, organism-based; details: Huh-7
[5] = tested on: Hepatitis B virus; experiment: Antiviral activity against Hepatitis B virus in human HepAD38 cells assessed as inhibition of extracellular viral replication incubated for 2 days followed by 3 day incubation with fresh medium containing compound for 72 hrs by qRT-PCR analysis; assay type: functional, organism-based
[6] = tested on: Hepatitis B virus; experiment: Antiviral activity against Hepatitis B virus in human HuH7 cells assessed as inhibition of intracellular viral replication at 2.5 and 25 uM after 48 hrs by qRT-PCR analysis; assay type: functional, organism-based; details: Huh-7
[7] = tested on: Hepatitis B virus; experiment: Antiviral activity against Hepatitis B virus in human HuH7 cells assessed as reduction in HBeAg secretion at 25 uM incubated for 2 days followed by 3 day incubation with fresh medium containing compound for 7 days by time-resolved fluoro-immunoassay; assay type: functional, organism-based; details: Huh-7
[8] = Cytotoxicity against human HepAD38 cells after 7 days by MTT assay; assay type: cell-based
[9] = Selectivity index, ratio of CC50 for human HepAD38 cells to EC50 for Hepatitis B virus; assay type: toxicity, cell-based; details: read-out: Ratio CC50/EC50

COc1cc(CSc2nc(Cc3ccc(OC)c(OC)c3)c(I)c(=O)[nH]2)cc(OC)c1
inhibition at 10 µM [1]: 41%

O=c1[nH]c(SCc2ccc([N+](=O)[O-])cc2)nc(Cc2cc(F)cc(F)c2)c1I
inhibition at 10 µM [1]: 47%

N#Cc1ccc(CSc2nc(Cc3ccccc3)c(I)c(=O)[nH]2)cc1
inhibition at 10 µM [1]: 63%

O=c1[nH]c(SCCOc2ccc([N+](=O)[O-])cc2)nc(Cc2cc(F)cc(F)c2)c1I
inhibition at 10 µM [1]: 9%

COc1ccc(Cc2nc(SC3C=CCCC3)[nH]c(=O)c2I)cc1OC (configuration not stated)
inhibition at 10 µM [1]: 52%

O=c1[nH]c(SCCOc2ccc([N+](=O)[O-])cc2)nc(Cc2ccccc2)c1I
inhibition at 10 µM [1]: 13%

N#Cc1ccc(CSc2nc(Cc3cc(F)cc(F)c3)c(I)c(=O)[nH]2)cc1
inhibition at 10 µM [1]: 14%

Cc1ccc(OCCSc2nc(Cn3nnc4ccccc43)c(I)c(=O)[nH]2)cc1
inhibition at 10 µM [1]: 35%

O=c1[nH]c(SCCOc2ccc([N+](=O)[O-])cc2)nc(Cn2nnc3ccccc32)c1I
Activity [2]: Dose-dependent effect
Activity [3]: Active
Activity [4]: inactive
EC50 [5]: 0.469 µM
Activity [6]: Active
Activity [7]: Active
CC50 at 168 h [8]: 52 µM
inhibition at 10 µM [1]: 74%
selectivity ratio [9]: 111

COc1cccc(CSc2nc(Cc3ccc(OC)c(OC)c3)c(I)c(=O)[nH]2)c1
inhibition [1]: inactive

O=c1[nH]c(SCc2ccc([N+](=O)[O-])cc2)nc(Cn2nnc3ccccc32)c1I
inhibition at 10 µM [1]: 49%

Nc1ccn([C@H]2CS[C@@H](CO)O2)c(=O)n1
EC50 [5]: 0.731 µM
CC50 at 168 h [8]: > 100 µM
inhibition at 10 µM [1]: 88%
selectivity ratio [9]: > 137

COc1ccc(Cc2nc(SCCOc3ccc(Br)cc3)[nH]c(=O)c2I)cc1OC
inhibition [1]: inactive

COc1ccc(Cc2nc(SC3CCCCCC3)[nH]c(=O)c2I)cc1OC
EC50 [5]: 40.8 µM
CC50 at 168 h [8]: 98 µM
inhibition at 10 µM [1]: 31%
selectivity ratio [9]: 2.4

O=c1[nH]c(SCc2ccc(I)cc2)nc(Cn2nnc3ccccc32)c1I
inhibition at 10 µM [1]: 34%

N#Cc1ccc(CSc2nc(Cn3nnc4ccccc43)c(I)c(=O)[nH]2)cc1
inhibition at 10 µM [1]: 27%

Cc1cc(C)cc(Cc2nc(SCc3ccc([N+](=O)[O-])cc3)[nH]c(=O)c2I)c1
inhibition at 10 µM [1]: 25%

COc1ccc(Cc2nc(SCc3ccc(C#N)cc3)[nH]c(=O)c2I)cc1OC
EC50 [5]: 4.84 µM
CC50 at 168 h [8]: 92 µM
inhibition at 10 µM [1]: 67%
selectivity ratio [9]: 19

Cc1cc(C)cc(Cc2nc(SCCOc3ccc([N+](=O)[O-])cc3)[nH]c(=O)c2I)c1
inhibition at 10 µM [1]: 20%

O=c1[nH]c(SCc2ccc(C(F)(F)F)cc2)nc(Cn2nnc3ccccc32)c1I
inhibition [1]: inactive

COc1ccc(Cc2nc(SCc3cccc(Cl)c3)[nH]c(=O)c2I)cc1OC
EC50 [5]: 4.28 µM
CC50 at 168 h [8]: 119 µM
inhibition at 10 µM [1]: 65%
selectivity ratio [9]: 27.8

COc1cc(CSc2nc(Cn3nnc4ccccc43)c(I)c(=O)[nH]2)cc(OC)c1
EC50 [5]: 12.2 µM
CC50 at 168 h [8]: 146 µM
inhibition at 10 µM [1]: 59%
selectivity ratio [9]: 12

COc1ccc(Cc2nc(SCCOc3ccc([N+](=O)[O-])cc3)[nH]c(=O)c2I)cc1OC
inhibition at 10 µM [1]: 6%

Cc1cc(C)cc(Cc2nc(SCc3ccc(C#N)cc3)[nH]c(=O)c2I)c1
inhibition at 10 µM [1]: 33%

O=c1[nH]c(SCCOc2ccc(Br)cc2)nc(Cn2nnc3ccccc32)c1I
inhibition at 10 µM [1]: 31%

O=c1[nH]c(SCc2ccc([N+](=O)[O-])cc2)nc(Cc2ccccc2)c1I
inhibition [1]: inactive

COc1ccc(Cc2nc(SCc3ccc(I)cc3)[nH]c(=O)c2I)cc1OC
inhibition at 10 µM [1]: 17%

COc1ccc(Cc2nc(SCc3ccc(C(F)(F)F)cc3)[nH]c(=O)c2I)cc1OC
inhibition at 10 µM [1]: 54%

COc1ccc(Cc2nc(SCc3ccccc3[N+](=O)[O-])[nH]c(=O)c2I)cc1OC
inhibition at 10 µM [1]: 62%

COc1ccc(Cc2nc(SCc3ccc([N+](=O)[O-])cc3)[nH]c(=O)c2I)cc1OC
Activity [2]: Dose-dependent effect
Activity [3]: Active
Activity [4]: inactive
EC50 [5]: 0.376 µM
Activity [6]: Active
Activity [7]: Active
CC50 at 168 h [8]: 124 µM
inhibition at 10 µM [1]: 81%
selectivity ratio [9]: 330

COc1ccc(Cc2nc(SCCOc3ccc(C)cc3)[nH]c(=O)c2I)cc1OC
inhibition at 10 µM [1]: 49%
